From US8883963B2 (Cadila Healthcare Limited, priority 2007, dated 2014)

Columns and labels:
[1] = biological target: T1, human glucagon receptor (Homo sapiens, UniProt P47871); assay: In vitro human glucagon antagonist activity (inhibition of cAMP production) in CHO/human glucagon R cells; format: cell-based; conditions: with saturated concentration of glucagon peptide
T1 construct: The full-length cDNA was cloned in pcDNA3.1 (Invitrogen); expressed in transfected cells

[2] = Stability in human plasma; format: in vitro ADME; conditions: 2 μM peptidomimetic, pooled human plasma, 37° C.; for half-life at 2 μM: pH 7.8, read-out: half-life (t1/2) when incubated with human plasma
Experimental: (§1) Reactions were terminated by the addition of TFA/H2O (15 mL, 10% (v/v)). […] The column was equilibrated with TFA/H20, at a flow rate of 1 mL/min.

[3] = Stability in liver microsomes; format: in vitro ADME; conditions: 2 μM peptidomimetic, human liver microsomes, 37° C.; for half-life at 2 μM: pH 7.8, read-out: half-life (t1/2) when incubated with liver microsomes
Experimental: as §1

[4] = test system: RIN5F (Rat Insulinoma) cells; assay: In vitro glucose-dependent insulin secretion (RIN5F cell assay screening protocol); format: cell-based; conditions: 16.7 mM glucose load
[5] = biological target: T2, Human GLP-1 receptor (Homo sapiens, UniProt P43220); assay: In vitro Human GLP-1 R agonist activity (cyclic AMP determination) in CHO/human GLP1R cells; format: cell-based
T2 construct: The full-length cDNA was cloned in pcDNA3.1(+); expressed in transfected cells

[6] = Stability in simulated gastric fluid; format: in vitro ADME; conditions: 2 μM peptidomimetic, simulated gastric fluid pH 1.5, 37° C.; for half-life at 2 μM: read-out: half-life (t1/2) when incubated with simulated gastric fluid
Experimental: as §1

[7] = Stability in simulated intestinal fluid; format: in vitro ADME; conditions: 2 μM peptidomimetic, simulated intestinal fluid pH 7.5, 37° C.; for half-life at 2 μM: read-out: half-life (t1/2) when incubated with simulated intestinal fluid
Experimental: as §1

[8] = biological target: DPP IV (Homo sapiens, UniProt P27487); assay: Stability against DPP IV enzyme; format: in vitro ADME; conditions: 37° C.; for % degradation of peptidomimetics in 24 h when incubated with DPP-IV enzyme: 2 μM peptidomimetic; for half-life at 2 μM: DPP IV enzyme, pH 7.8, 2 μM peptidomimetic, read-out: half-life (t1/2) when incubated with DPP-IV enzyme
Experimental: as §1

Chain of DPP IV (P27487 whole entry, species assumed): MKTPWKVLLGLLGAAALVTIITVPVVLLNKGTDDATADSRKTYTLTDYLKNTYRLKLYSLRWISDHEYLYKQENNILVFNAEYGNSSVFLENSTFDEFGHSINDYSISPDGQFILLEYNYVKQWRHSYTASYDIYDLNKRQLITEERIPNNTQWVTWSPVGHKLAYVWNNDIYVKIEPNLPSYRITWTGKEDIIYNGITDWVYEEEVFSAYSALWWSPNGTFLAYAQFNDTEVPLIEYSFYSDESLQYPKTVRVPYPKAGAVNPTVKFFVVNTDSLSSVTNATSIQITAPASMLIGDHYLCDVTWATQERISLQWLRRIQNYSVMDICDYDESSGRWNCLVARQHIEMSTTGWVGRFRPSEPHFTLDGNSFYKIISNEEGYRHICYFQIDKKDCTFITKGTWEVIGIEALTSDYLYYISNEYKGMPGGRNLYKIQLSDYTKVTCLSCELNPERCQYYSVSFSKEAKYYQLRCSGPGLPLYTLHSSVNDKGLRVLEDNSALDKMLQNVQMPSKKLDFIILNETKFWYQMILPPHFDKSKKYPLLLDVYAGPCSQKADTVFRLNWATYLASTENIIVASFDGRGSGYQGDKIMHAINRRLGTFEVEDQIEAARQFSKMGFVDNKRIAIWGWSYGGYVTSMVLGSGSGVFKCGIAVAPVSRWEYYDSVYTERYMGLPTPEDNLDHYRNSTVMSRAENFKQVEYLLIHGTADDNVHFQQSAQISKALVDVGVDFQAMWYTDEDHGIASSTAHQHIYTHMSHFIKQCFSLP
T1 sequence (P47871 26-477): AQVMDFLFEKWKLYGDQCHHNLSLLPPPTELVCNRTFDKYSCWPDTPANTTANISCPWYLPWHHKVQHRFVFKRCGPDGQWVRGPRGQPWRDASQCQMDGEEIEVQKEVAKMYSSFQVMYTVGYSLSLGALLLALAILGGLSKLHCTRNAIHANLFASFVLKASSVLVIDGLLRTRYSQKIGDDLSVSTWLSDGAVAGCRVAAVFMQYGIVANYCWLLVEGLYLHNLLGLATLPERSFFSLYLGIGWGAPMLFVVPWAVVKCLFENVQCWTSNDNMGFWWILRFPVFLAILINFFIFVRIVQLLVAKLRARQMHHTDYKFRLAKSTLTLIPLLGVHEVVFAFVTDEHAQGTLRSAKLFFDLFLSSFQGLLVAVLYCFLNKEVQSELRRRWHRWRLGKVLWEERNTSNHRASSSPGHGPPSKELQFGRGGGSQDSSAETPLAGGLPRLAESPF
T2 sequence (P43220 24-463): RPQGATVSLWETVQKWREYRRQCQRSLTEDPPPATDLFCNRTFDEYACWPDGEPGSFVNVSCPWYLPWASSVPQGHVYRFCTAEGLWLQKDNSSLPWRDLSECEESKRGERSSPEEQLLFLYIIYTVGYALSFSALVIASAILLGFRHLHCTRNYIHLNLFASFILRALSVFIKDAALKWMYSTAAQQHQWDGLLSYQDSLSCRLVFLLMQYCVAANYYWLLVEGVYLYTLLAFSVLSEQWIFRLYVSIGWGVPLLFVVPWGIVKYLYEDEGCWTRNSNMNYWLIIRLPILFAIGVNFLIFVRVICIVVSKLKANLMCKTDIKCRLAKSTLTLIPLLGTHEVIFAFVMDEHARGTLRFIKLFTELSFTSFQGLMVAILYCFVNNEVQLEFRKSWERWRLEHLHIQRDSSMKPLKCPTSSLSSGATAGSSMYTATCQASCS

SMILES | Human Glucagon receptor antagonistic activity shown as inhibition of cAMP production of Glucagon peptide ([1]; 1 nM test compound) | Human Glucagon receptor antagonistic activity shown as inhibition of cAMP production of Glucagon peptide ([1]; 10 nM test compound) | % degradation of peptidomimetics in 24 h when incubated with human plasma [2] | half-life at 2 μM [2] | % degradation of peptidomimetics in 24 h when incubated with liver microsomes [3] | half-life at 2 μM [3] | Insulin secretion ([4]; 0.1 nM test compd.) | Insulin secretion ([4]; 1 nM test compd.) | Insulin secretion ([4]; 10 nM test compd.) | Human GLP-1 R activity (cAMP release), % activity with respect to control ([5]; 1 nM test compound) | Human GLP-1 R activity (cAMP release), % activity with respect to control ([5]; 10 nM test compound) | Human GLP-1 R activity (cAMP release), % activity with respect to control ([5]; 100 nM test compound) | Human GLP-1 R activity (cAMP release), % activity with respect to control ([5]; 1 μM test compound) | Human GLP-1 R activity (cAMP release), % activity with respect to control ([5]; 10 μM test compound) | % degradation of peptidomimetics in 24 h when incubated with simulated gastric fluid [6] | half-life at 2 μM [6] | % degradation of peptidomimetics in 24 h when incubated with simulated intestinal fluid [7] | half-life at 2 μM [7] | % degradation of peptidomimetics in 24 h when incubated with DPP-IV enzyme [8] | half-life at 2 μM [8] | also measured
CCc1cc(OC)ccc1-c1ccc(CC(NC(=O)[C@H](CC(=O)O)NC(=O)[C@H](CO)NC(=O)[C@@H](NC(=O)C(C)(Cc2ccccc2F)NC(=O)[C@@H](NC(=O)CNC(=O)C(CCC#N)NC(=O)C(C)(C)NC(=O)[C@@H](N)Cc2c[nH]cn2)[C@H](C)O)[C@@H](C)O)C(=O)NC(CCCc2ccccc2F)C(N)=O)cc1 (single isomer, unassigned) [compound 112] | 6 ± 0.01 pmol/ml/μg prt | 5 ± 0.02 pmol/ml/μg prt | 00% | > 24 h | 82% | 2 h | 15.3 ± 0.19 pg/µg/h | 21.2 ± 0.11 pg/µg/h | 35.5 ± 0.19 pg/µg/h | 39 ± 0.10% | 81 ± 0.08% | 89 ± 0.09% | 96 ± 0.11% | 99 ± 0.16% | 49% | 4 h | 00% | > 24 h | 00% | > 24 h | Human Glucagon receptor antagonistic activity shown as inhibition of cAMP production of Glucagon peptide ([1]; 100 nM test compound): 2 ± 0.13 pmol/ml/μg prt; Human Glucagon receptor antagonistic activity shown as inhibition of cAMP production of Glucagon peptide ([1]; 1 μM test compound): 0 pmol/ml/μg prt; Human Glucagon receptor antagonistic activity shown as inhibition of cAMP production of Glucagon peptide ([1]; 10 μM test compound): 0 pmol/ml/μg prt
CCc1cc(OC)ccc1-c1ccc(CC(NC(=O)[C@H](CC(=O)O)NC(=O)[C@H](CO)NC(=O)[C@@H](NC(=O)C(C)(Cc2ccccc2F)NC(=O)[C@@H](NC(=O)CNC(=O)C(CCC#N)NC(=O)C(C)(C)NC(=O)[C@@H](N)Cc2c[nH]cn2)[C@H](C)O)[C@H](C)O)C(=O)NC(CCCc2ccccc2)C(N)=O)cc1 (single isomer, unassigned) [compound 114] | 4 ± 0.02 pmol/ml/μg prt | 2 ± 0.15 pmol/ml/μg prt | 00% | > 24 h | 81% | 2 h | 16.6 ± 0.41 pg/µg/h | 22.9 ± 0.32 pg/µg/h | 36.6 ± 0.19 pg/µg/h | 82 ± 0.22% | 87 ± 0.12% | 92 ± 0.14% | 99 ± 0.22% | 99 ± 0.26% | 52% | 4 h | 00% | > 24 h | 00% | > 24 h | Human Glucagon receptor antagonistic activity shown as inhibition of cAMP production of Glucagon peptide ([1]; 100 nM test compound): 0 pmol/ml/μg prt; Human Glucagon receptor antagonistic activity shown as inhibition of cAMP production of Glucagon peptide ([1]; 1 μM test compound): 0 pmol/ml/μg prt; Human Glucagon receptor antagonistic activity shown as inhibition of cAMP production of Glucagon peptide ([1]; 10 μM test compound): 0 pmol/ml/μg prt
CCc1cc(OC)ccc1-c1ccc(CC(NC(=O)[C@H](CC(=O)O)NC(=O)[C@H](CO)NC(=O)[C@@H](NC(=O)C(C)(Cc2ccccc2)NC(=O)[C@@H](NC(=O)CNC(=O)[C@H](CC(C(F)(F)F)C(F)(F)F)NC(=O)C(C)(C)NC(=O)[C@@H](N)Cc2c[nH]cn2)[C@@H](C)O)[C@@H](C)O)C(=O)NC(CCCc2ccccc2)C(N)=O)cc1 (single isomer, unassigned) [compound 230] |  |  | 70% |  | 100% | 0.5 h | 12.1 ± 0.51 pg/µg/h | 14.1 ± 0.19 pg/µg/h | 28.1 ± 0.29 pg/µg/h | 99 ± 0.12% | 99 ± 0.08% | 99 ± 0.11% | 99 ± 0.12% | 99 ± 0.16% | 100% | 0.5 h | 100 ) % | 0.5 h | 86% |  | half-life (t1/2) when incubated with human plasma [2]: (9) h
CCc1cc(OC)ccc1-c1ccc(CC(NC(=O)[C@H](CC(=O)O)NC(=O)[C@H](CO)NC(=O)[C@@H](NC(=O)C(C)(Cc2ccccc2F)NC(=O)[C@@H](NC(=O)CNC(=O)[C@H](CC(C(F)(F)F)C(F)(F)F)NC(=O)C(C)(C)NC(=O)[C@H](Cc2c[nH]cn2)NC(C)=O)[C@@H](C)O)[C@@H](C)O)C(=O)NC(CCCc2ccccc2)C(N)=O)cc1 (single isomer, unassigned) [compound 210] |  |  | 77% |  | 100% | 0.5 h | 11.9 ± 0.17 pg/µg/h | 14.2 ± 0.13 pg/µg/h | 27.6 ± 0.16 pg/µg/h | 46 ± 0.022% | 85 ± 0.46% | 90 ± 0.41% | 99 ± 0.66% | 99 ± 0.03% | 100% | 0.5 h | 100% | 0.5 h | 75% |  | half-life (t1/2) when incubated with human plasma [2]: (9) h
CCc1cc(OC)ccc1-c1ccc(CC(NC(=O)[C@H](CC(=O)O)NC(=O)[C@H](CO)NC(=O)[C@@H](NC(=O)[C@H](Cc2ccccc2)NC(=O)[C@@H](NC(=O)CNC(=O)[C@H](CCC(N)=O)NC(=O)[C@H](CO)NC(=O)[C@@H](N)Cc2c[nH]cn2)[C@@H](C)O)[C@@H](C)O)C(=O)NC(CCCc2ccccc2Cl)C(N)=O)cc1 (single isomer, unassigned) [compound 50] |  |  | 80% | 8 h | 82% | 1 h | 15.4 ± 0.14 pg/µg/h | 21.2 ± 0.18 pg/µg/h | 35.6 ± 0.17 pg/µg/h | 60 ± 0.12% | 92 ± 0.15% | 98 ± 0.18% | 99 ± 0.03% | 99 ± 0.09% | 13% |  | 50% |  | 77% | 9 h | half-life (t1/2) when incubated with simulated gastric fluid [6]: (8) h; half-life (t1/2) when incubated with simulated intestinal fluid [7]: (6) h
